Reference: patent US10258617B2, “Dosing regimens for fast onset of antidepressant effect” (H. Lundbeck A/S, priority 2016, dated 2019)
Like-named read-outs stand apart in the source and are kept apart here.

Experiments:
[1] = target: T1, serotonin transporter (SERT) (Macaca mulatta, UniProt Q9MYX0); test: Example 1 PET monkey study: SERT occupancy with [11C]MADAM; type: in vivo, rhesus monkeys; conditions: rhesus monkey, iv, monkey brain
T1 construct: serotonin transporter occupancy in the monkey brain using the SERT radio-ligand; from tissue; host or cells: brain of living rhesus monkeys (PET)
From the text: (§1) Positron Emission Tomography (PET) was used to assess changes in the endogenous serotonin concentration in living rhesus monkeys. The objective of the present study was two-fold. […] The chemical name for [^11C]MADAM is [^11C] N,N-dimethyl-2-(2-amino-4-methylphenylthio)benzylamine.
(§2) FIG. 1 illustrates the study design used for assessment of serotonin releasing capacities. A similar study design was applied for assessment of SERT occupancy.

[2] = system: depression; conditions: FDA label of July 2014; oral treatment; cited from earlier work
[3] = target: T2, 5-HT1B receptor (Macaca mulatta, UniProt F6SFA9); test: Example 1 PET monkey study: change in [11C]AZ10419369-5-HT1B receptor binding potential (BPND); type: in vivo, rhesus monkeys; conditions: rhesus monkey, iv, mean±standard error, n=3, read-out: ΔBPND (% of baseline); for change in vivo at 0.3 mg/kg: Vortioxetine 0.3 mg/kg IV; for change in vivo at 1 mg/kg: Vortioxetine 1.0 mg/kg IV
T2 construct: assess changes in the endogenous serotonin concentration in living rhesus monkeys; from tissue; host or cells: brain of living rhesus monkeys (PET)
From the text: as §1, §2

[4] = cited from earlier work

T2 sequence (F6SFA9 1-390): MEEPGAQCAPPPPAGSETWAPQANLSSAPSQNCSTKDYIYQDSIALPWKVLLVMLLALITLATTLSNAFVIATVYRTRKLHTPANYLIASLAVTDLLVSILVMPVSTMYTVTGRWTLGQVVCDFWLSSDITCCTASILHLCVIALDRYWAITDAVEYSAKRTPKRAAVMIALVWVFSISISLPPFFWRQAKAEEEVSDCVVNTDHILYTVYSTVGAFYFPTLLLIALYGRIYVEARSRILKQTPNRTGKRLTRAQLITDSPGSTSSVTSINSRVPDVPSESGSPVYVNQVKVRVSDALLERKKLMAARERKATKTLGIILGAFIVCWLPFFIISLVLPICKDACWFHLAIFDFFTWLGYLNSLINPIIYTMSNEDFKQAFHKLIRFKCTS
T1 sequence (Q9MYX0 whole entry): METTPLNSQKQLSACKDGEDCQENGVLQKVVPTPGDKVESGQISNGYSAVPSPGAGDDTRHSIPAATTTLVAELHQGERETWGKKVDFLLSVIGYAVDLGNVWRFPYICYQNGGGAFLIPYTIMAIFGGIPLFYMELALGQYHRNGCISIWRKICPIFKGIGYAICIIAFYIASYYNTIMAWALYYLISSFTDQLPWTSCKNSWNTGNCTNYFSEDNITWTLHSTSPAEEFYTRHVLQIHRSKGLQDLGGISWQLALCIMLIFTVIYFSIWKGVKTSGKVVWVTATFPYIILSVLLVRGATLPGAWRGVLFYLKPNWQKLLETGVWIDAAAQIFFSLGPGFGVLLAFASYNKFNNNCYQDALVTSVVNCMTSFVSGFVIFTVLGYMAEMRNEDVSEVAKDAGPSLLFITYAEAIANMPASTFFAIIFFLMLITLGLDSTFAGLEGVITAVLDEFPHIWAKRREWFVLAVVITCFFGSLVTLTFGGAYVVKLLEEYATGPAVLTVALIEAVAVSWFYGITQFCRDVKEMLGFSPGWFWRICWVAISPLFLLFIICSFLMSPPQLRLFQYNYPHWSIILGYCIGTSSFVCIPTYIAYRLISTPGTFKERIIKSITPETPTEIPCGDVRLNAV

Cc1ccc(Sc2ccccc2N2CCNCC2)c(C)c1 [Vortioxetine, 1-[2-(2,4-dimethyl-phenylsulfanyl)-phenyl]piperazine]
receptor occupancy at 0.3 mg/kg ([1]; vortioxetine 0.3 mg/kg intravenously): ~50% | receptor occupancy at 1 mg/kg ([1]; vortioxetine 1.0 mg/kg intravenously): ~80% | effect of vortioxetine is observed starting at week [2]: 2 week | full antidepressant effect not seen until week [2]: ≥ 4 week | change in vivo at 0.3 mg/kg ([3]; Amygdala): -12.4 ± 10.5% | change in vivo at 1 mg/kg ([3]; Amygdala): -39.5 ± 11.5% | change in vivo at 0.3 mg/kg ([3]; Caudate nucleus): -23.2 ± 7.4% | change in vivo at 1 mg/kg ([3]; Caudate nucleus): -47 ± 8% | change in vivo at 0.3 mg/kg ([3]; Dorsal raphe nucleus): -28.3 ± 13.6% | change in vivo at 1 mg/kg ([3]; Dorsal raphe nucleus): -55 ± 3.3% | change in vivo at 0.3 mg/kg ([3]; Frontal gyrus): -8.2 ± 8.2% | change in vivo at 1 mg/kg ([3]; Frontal gyrus): -32.8 ± 9.5% | change in vivo at 0.3 mg/kg ([3]; Globus pallidus): -16.3 ± 5.1% | change in vivo at 1 mg/kg ([3]; Globus pallidus): -41.2 ± 6.4% | change in vivo at 0.3 mg/kg ([3]; Hippocampus): -9.4 ± 8.9% | change in vivo at 1 mg/kg ([3]; Hippocampus): -27 ± 6.8% | change in vivo at 0.3 mg/kg ([3]; Midbrain): -21.9 ± 3% | change in vivo at 1 mg/kg ([3]; Midbrain): -49.4 ± 7.1% | change in vivo at 0.3 mg/kg ([3]; Occipital gyrup): -24.3 ± 3.2% | change in vivo at 1 mg/kg ([3]; Occipital gyrup): -54.1 ± 4.2% | change in vivo at 0.3 mg/kg ([3]; Putamen): -15.6 ± 8.5% | change in vivo at 1 mg/kg ([3]; Putamen): -40.8 ± 7.9% | change in vivo at 0.3 mg/kg ([3]; Thalamus): -23.9 ± 5% | change in vivo at 1 mg/kg ([3]; Thalamus): -42.5 ± 7% | change in vivo at 0.3 mg/kg ([3]; Ventral striatum): -25.6 ± 5.4% | change in vivo at 1 mg/kg ([3]; Ventral striatum): -47.7 ± 8.5% | steady-state plasma level (median AUC0-24) ([4]; once daily oral 5 mg): 161 ng·h/mL | steady-state plasma level (median AUC0-24) ([4]; once daily oral 10 mg): 323 ng·h/mL | steady-state plasma level (median AUC0-24) ([4]; once daily oral 15 mg): 484 ng·h/mL | steady-state plasma level (median AUC0-24) ([4]; once daily oral 20 mg): 645 ng·h/mL | time until steady-state plasma concentration is achieved ([4]; once daily oral administration): approximately 8 days
